Patent US5462935A, “Cephalosporin compounds” (Lucky Limited, priority 1990, dated 1995)
Values after ≈ are worked out from the molar mass of the structure shown. Like-named read-outs stand apart in the source and are kept apart here.

Experiments:
[1] = acute toxicity test, intravenous; conditions: mouse, in vivo, ICR mice, observed for 14 days
From the text: The results are shown in the last row of Table 2.

[2] = test system: Providencia rettgeri ATCC 9250; assay: minimal inhibitory concentration, two-fold agar dilution; format: cell-based; conditions: ATCC9250, Muller-Hinton agar, 37° C., 20 hours
Method: (§1) These NIC values were taken by employing a two-fold dilution method: that is, two-fold serial dilutions of each of the test compounds were made and dispersed in a Muller-Hinton agar medium; 2 μl of the standard test strain which had the 10^7 CFU (Colony Forming Unit) per ml was inoculated on the medium; and these were incubated at 37° C. for 20 hours.

[3] = test system: Escherichia coli ATCC 10536; assay: as above; format: cell-based; conditions: ATCC10536, Muller-Hinton agar, 37° C., 20 hours
Method: as §1

[4] = test system: Proteus vulgaris ATCC 6059; assay: as above; format: cell-based; conditions: ATCC6059, Muller-Hinton agar, 37° C., 20 hours
Method: as §1

[5] = test system: Escherichia coli ATCC 25922; assay: as above; format: cell-based; conditions: ATCC25922, Muller-Hinton agar, 37° C., 20 hours
Method: as §1

[6] = test system: Staphylococcus aureus ATCC 6638p; assay: as above; format: cell-based; conditions: ATCC6638P, 20 h
Method: as §1

[7] = test system: Acinetobacter calcoaceticus ATCC 15473; assay: as above; format: cell-based; conditions: ATCC15473, Muller-Hinton agar, 37° C., 20 hours
Method: as §1

[8] = test system: Klebsiella pneumoniae ATCC 10031; assay: as above; format: cell-based; conditions: ATCC10031, Muller-Hinton agar, 37° C., 20 hours
Method: as §1

[9] = test system: Staphylococcus epidermidis ATCC 10537; assay: as above; format: cell-based; conditions: ATCC10537, Muller-Hinton agar, 37° C., 20 hours
Method: as §1

[10] = test system: Citrobacter freundii ATCC 8090; assay: as above; format: cell-based; conditions: ATCC8090, Muller-Hinton agar, 37° C., 20 hours
Method: as §1

[11] = test system: Micrococcus luteus ATCC 9341; assay: as above; format: cell-based; conditions: ATCC9341, Muller-Hinton agar, 37° C., 20 hours
Method: as §1

[12] = test system: ATCC 12228; assay: as above; format: cell-based; conditions: Staphylococcus faecalis, ATCC12228, 20 h
Method: as §1

[13] = test system: Enterobacter aerogenes ATCC 29751; assay: as above; format: cell-based; conditions: Klebsiella aerogenes
Method: as §1

[14] = test system: Enterobacter cloacae ATCC 27508; assay: as above; format: cell-based; conditions: ATCC27508, Muller-Hinton agar, 37° C., 20 hours
Method: as §1

[15] = test system: Shigella flexneri ATCC 11836; assay: as above; format: cell-based; conditions: ATCC11836, Muller-Hinton agar, 37° C., 20 hours
Method: as §1

[16] = test system: Morganella morganii ATCC 8076h; assay: as above; format: cell-based; conditions: ATCC8076H, 20 h
Method: as §1

[17] = test system: Serratia marcescens ATCC 27117; assay: as above; format: cell-based; conditions: ATCC27117, Muller-Hinton agar, 37° C., 20 hours
Method: as §1

[18] = test system: Proteus mirabilis ATCC 25933; assay: as above; format: cell-based; conditions: ATCC25933, Muller-Hinton agar, 37° C., 20 hours
Method: as §1

[19] = test system: Bacillus cereus ATCC 11778; assay: as above; format: cell-based
Method: as §1

[20] = test system: Streptococcus faecalis ATCC 29212; assay: as above; format: cell-based; conditions: Enterococcus faecalis, ATCC29212, Muller-Hinton agar, 37° C., 20 hours
Method: as §1

[21] = test system: Pseudomonas aerugionsa ATCC 27853; assay: as above; format: cell-based; conditions: ATCC27853, Muller-Hinton agar, 37° C., 20 hours
Method: as §1

[22] = test system: Shigella sonnei ATCC 11060; assay: as above; format: cell-based; conditions: ATCC11060, Muller-Hinton agar, 37° C., 20 hours
Method: as §1

[23] = test system: Pseudomonas aeruginosa ATCC 25619; assay: as above; format: cell-based; conditions: ATCC25619, Muller-Hinton agar, 37° C., 20 hours
Method: as §1

[24] = test system: Salmonella typhimurium ATCC 14028; assay: as above; format: cell-based; conditions: Salmonella enterica, Muller-Hinton agar, 37° C., 20 hours
Method: as §1

[25] = test system: Pseudomonas aerugionsa ATCC 10145; assay: as above; format: cell-based; conditions: ATCC10145, Muller-Hinton agar, 37° C., 20 hours
Method: as §1

[26] = test system: Bacillus megaterium ATCC 9885; assay: as above; format: cell-based; conditions: Priestia megaterium
Method: as §1

[27] = Bacillus cereus, ATCC11778, 20 h

Compound | LD50 at 336 h [1] | MIC [2] | MIC [3] | MIC [4] | MIC [5] | MIC [6] | MIC [7] | MIC [8] | MIC [9] | MIC [10] | MIC [11] | MIC [12] | MIC [14] | MIC [15] | MIC [17] | MIC [18] | MIC [20] | MIC [21] | MIC [22] | MIC [23] | also measured
Cc1c(N)nc(SCC2=C(C(=O)[O-])N3C(=O)C(NC(=O)/C(=N\O[C@H](C)C(=O)O)c4csc(N)n4)[C@H]3SC2)[n+](C)c1N (stereo partly drawn) [I-R-6, 7-[(Z)-2-(2-aminothiazol-4-yl)-2-[(R)-1-carboxyeth-1-oxyimino]acetamido]-3-[(4,6-diamino-1,5-dimethylpyrimidinium-2-yl)thiomethyl]-3-cephem-4-carboxylate] | > 3000 mg/kg | ≤ 0.008 µg/mL | 0.063 µg/mL (≈ 0.101 µM) | 0.063 µg/mL (≈ 0.101 µM) | 0.13 µg/mL (≈ 0.208 µM) | 4 µg/mL (≈ 6.41 µM) | 4 µg/mL (≈ 6.41 µM) | 0.063 µg/mL (≈ 0.101 µM) | 2 µg/mL (≈ 3.21 µM) | 0.063 µg/mL (≈ 0.101 µM) | 0.5 µg/mL (≈ 0.802 µM) | 2 µg/mL (≈ 3.21 µM) | 0.016 µg/mL (≈ 0.0257 µM) | 0.031 µg/mL (≈ 0.0497 µM) | 0.13 µg/mL (≈ 0.208 µM) | 0.031 µg/mL (≈ 0.0497 µM) | > 128 µg/mL | 2 µg/mL (≈ 3.21 µM) | 0.063 µg/mL (≈ 0.101 µM) | 2 µg/mL (≈ 3.21 µM) | MIC ([13]; ATCC29751, 20 h): 1 µg/mL (≈ 1.6 µM); MIC [16]: ≤ 0.008 µg/mL; MIC [19, 27]: 128 µg/mL (≈ 205 µM); MIC [24]: 0.13 µg/mL (≈ 0.208 µM); MIC [25]: 2 µg/mL (≈ 3.21 µM)
C[C@H](O/N=C(\C(=O)NC1C(=O)N2C(C(=O)[O-])=C(CSc3nc(N)cc(N)[n+]3C)CS[C@H]12)c1csc(N)n1)C(=O)O (stereo partly drawn) [I-S-2, 7-[(Z)-2-(2-aminothiazol-4-yl)-2-[(S)-1-carboxyeth-1-oxyimino]acetamido]-3-[(4,6-diamino-1-methylpyrimidinium-2-yl)thiomethyl]-3-cephem-4-carboxylate] | > 3000 mg/kg | ≤ 0.008 µg/mL | 0.031 µg/mL (≈ 0.0508 µM) | 0.016 µg/mL (≈ 0.0262 µM) | 0.016 µg/mL (≈ 0.0262 µM) | 2 µg/mL (≈ 3.28 µM) | 2 µg/mL (≈ 3.28 µM) | 0.016 µg/mL (≈ 0.0262 µM) | 1 µg/mL (≈ 1.64 µM) | 0.016 µg/mL (≈ 0.0262 µM) | 0.13 µg/mL (≈ 0.213 µM) | 1 µg/mL (≈ 1.64 µM) | ≤ 0.008 µg/mL | ≤ 0.008 µg/mL | 0.031 µg/mL (≈ 0.0508 µM) | 0.016 µg/mL (≈ 0.0262 µM) | > 128 µg/mL | 0.5 µg/mL (≈ 0.82 µM) | 0.031 µg/mL (≈ 0.0508 µM) | 1 µg/mL (≈ 1.64 µM) | MIC ([26]; ATCC9885, 20 h): 0.25 µg/mL (≈ 0.41 µM); MIC ([13]; ATCC29751, 20 h): 0.5 µg/mL (≈ 0.82 µM); MIC [19, 27]: 32 µg/mL (≈ 52.5 µM); MIC [24]: 0.13 µg/mL (≈ 0.213 µM); MIC [25]: 1 µg/mL (≈ 1.64 µM)
Cc1c(N)nc(SCC2=C(C(=O)[O-])N3C(=O)C(NC(=O)/C(=N\O[C@@H](C)C(=O)O)c4csc(N)n4)[C@H]3SC2)[n+](N)c1N (stereo partly drawn) [I-S-7, 7-[(Z)-2-(2-aminothiazol-4-yl)-2-[(S)-1-carboxyeth-1-oxyimino]acetamido]-3-[(5-methyl-1,4,6-triaminopyrimidinium-2-yl)thiomethyl]-3-cephem-4-carboxylate] | > 5000 mg/kg | ≤ 0.008 µg/mL | 0.031 µg/mL (≈ 0.0496 µM) | 0.016 µg/mL (≈ 0.0256 µM) | 0.016 µg/mL (≈ 0.0256 µM) | 4 µg/mL (≈ 6.4 µM) | 2 µg/mL (≈ 3.2 µM) | 0.016 µg/mL (≈ 0.0256 µM) | 2 µg/mL (≈ 3.2 µM) | 0.016 µg/mL (≈ 0.0256 µM) | 0.25 µg/mL (≈ 0.4 µM) | 1 µg/mL (≈ 1.6 µM) | ≤ 0.008 µg/mL | 0.016 µg/mL (≈ 0.0256 µM) | 0.063 µg/mL (≈ 0.101 µM) | 0.016 µg/mL (≈ 0.0256 µM) | > 128 µg/mL | 0.5 µg/mL (≈ 0.8 µM) | 0.031 µg/mL (≈ 0.0496 µM) | 0.5 µg/mL (≈ 0.8 µM) | MIC ([26]; ATCC9885, Bacillus megaterium ATCC 9885, Muller-Hinton agar, 37° C., 20 hours, read-out: MIC): 26 µg/mL (≈ 41.6 µM); MIC ([13]; ATCC29751, Enterobacter aerogenes ATCC 29751, Muller-Hinton agar, 37° C., 20 hours, read-out: MIC): 0.15 µg/mL (≈ 0.24 µM); MIC ([19]; ATCC11778, Bacillus cereus ATCC 11778, Muller-Hinton agar, 37° C., 20 hours, read-out: MIC): 84 µg/mL (≈ 134 µM); MIC [24]: 0.063 µg/mL (≈ 0.101 µM); MIC [25]: 1 µg/mL (≈ 1.6 µM)
